How the values were obtained:
[1] = In vitro drug release kinetics of ECA-L-Cysteine polyanhydride microparticles; assay type: physicochemical; conditions: accelerated infinite sink conditions at 37° C.; FIG. 1
Description: FIG. 1 is a graph showing the release of ECA-L-cysteine (% release) as a function of time (days).

normal, C57BL/6 mice = experiment: IOP lowering effect in normal mice after administration via the epischleral vein at the limbus; assay type: in vivo
Description: FIG. 2A is a graph showing intraocular pressure (IOP, mmHg) as function of administration of free ECA and a control over time (days). FIG. 2B is a graph showing intraocular pressure (IOP, mmHg) as function of administration of ECA-L-cysteine particles and a control over time (days).

[2] = tested on: human patients with elevated IOP; conditions: intracameral administration; cited from earlier work

| SMILES | time over which ECA-L-Cysteine conjugate was continually released in vitro [1] [days] | duration of the IOP lowering effect (normal, C57BL/6 mice; 1 μg drug via epischleral vein at the limbus) [days] | IOP lowering compared to the untreated control group (normal, C57BL/6 mice; 1 μg drug via epischleral vein at the limbus, FIGS. 2A and 2B) | IOP lowering effect by Day 5 (normal, C57BL/6 mice; 1 μg free drug, Day 5) | duration of IOP lowering [2] |
| --- | --- | --- | --- | --- | --- |
| CCC(CSC[C@H](N)C(=O)O)C(=O)c1ccc(OCC(=O)O)c(Cl)c1Cl (stereo partly drawn) [ECA-L-Cysteine conjugate] | 14 |  |  |  |  |
| C=C(CC)C(=O)c1ccc(OCC(=O)O)c(Cl)c1Cl [free ECA, ethacrynic acid] |  | 1 | significant lowering of IOP | gone | three |
